According to patent US20170087165A1, “METHODS FOR REDUCING THE OCCURRENCE OF PRETERM DELIVERY AND OTHER PREGNANCY-RELATED CONDITIONS” (Lumara Health IP, Ltd., priority 2009, published 2017):
Several values for one entry are separate records, joined by “and”; a condition that tells them apart may be missing. Identical values can stand only once.

Tests used:
[1] = test system: pregnant women having a documented history of spontaneous preterm delivery; details: cited from earlier work
[2] = Analysis of the Example 1 trial by smoking status during pregnancy; type: in vivo, human; details: women who smoked during pregnancy; 95% CI 0.0830, 0.5297
Procedure: (§1) In a double-blind, placebo-controlled trial, 463 pregnant women having a documented history of spontaneous preterm delivery received weekly injections of 250 mg […] caproate (17-HPC) or an inert castor oil placebo beginning at 16 to 20weeks of gestation and continuing until delivery or 36 weeks of gestation, whichever occurred first. […] A 2:1 ratio was used for the assignment of women to the 17-HPC or placebo group, since those in the placebo group would be subjected to painful injections on a weekly basis with no possibility of direct benefit. Thus, there were 310 women in the 17-HPC group and 153 women in the placebo group. The baseline characteristics of the women in the two groups were similar in terms of the mean duration of gestation of the qualifying delivery, the mean duration of gestation at the time of randomization, race or ethnic group, marital status, body mass index (BMI), educational level, smoking status, and substance use during pregnancy. The women in the placebo group had had more previous preterm deliveries (mean of 1.6 vs. 1.4 in the 17-HPC group). 91.5% of the study participants were compliant with all of their injections, noncompliance being defined as a gap of 10 days or more between any two injections, and there was no difference in the rate of compliance between the placebo group and the 17-HPC group. Preterm delivery was defined as delivery at less than 37 completed weeks (259 days) of gestation, calculated on the basis of the date of the last menstrual period and ultrasonography results.
(§2) In the clinical trial described in Example 1, 22.6% ([…]) of subjects in the 17-HPC group and 19.6% (30/153) of subjects in the placebo group smoked during pregnancy. […] Thus, it was apparent in the data that smoking increased the risk f or preterm delivery, measured either as delivery prior to 37 weeks of gestation.

[3] = test system: women who smoked during pregnancy; test: as above; type: in vivo, human
Procedure: as §1, §2

[4] = test system: children of the mothers who participated in the trial; details: cited from earlier work

For `CCCCCC(=O)O[C@]1(C(C)=O)CC[C@H]2[C@@H]3CCC4=CC(=O)CC[C@]4(C)[C@H]3CC[C@@]21C` [17-HPC, 17alpha-hydroxyprogesterone caproate], which “incidence of preterm delivery at less than 37 weeks of gestation” value ([1]; 250 mg weekly injection from 16-20 weeks of gestation until delivery or 36 weeks, 111/306, placebo 54.9%) is on record?
The value was 36.3%.

What about the “incidence of delivery at less than 32 weeks” value ([1]; 250 mg weekly, 35/306, P=0.02) of the same compound?
Its value is 11.4%.

And the “incidence of delivery at less than 35 weeks of gestation” value ([1]; 250 mg weekly, 63/306, placebo 30.7%, P=0.02)?
The value was 20.6%.

And the “incidence of necrotizing enterocolitis” value ([1]; infants of treated women, 0/305, placebo 2.6%, P=0.01)?
The value was 0%.

And the “incidence of intraventricular hemorrhage of any grade” value ([1]; infants of treated women, 4/305, placebo 5.2%)?
Its value is 1.3%.

What about the “incidence of birth weight of less than 1500 g” value ([1]; infants of treated women, 26/301, placebo 13.9%, P=0.08, non-significant) of the same compound?
The value was 8.6%.

What about the “incidence of need for supplemental oxygen” value ([1]; infants of treated women, 45/303, placebo 23.8%) of the same compound?
Its value is 14.9%.

What about the “incidence of birth weight of less than 2500 g” value ([1]; infants of treated women, 82/301, placebo 41.1%, P=0.003) of the same compound?
The value was 27.2%.

What about the “rate of intraventricular hemorrhage of grades 3 to 4” value ([1]; versus placebo group) of the same compound?
The value was “no significant difference between groups”.

And the “rates of infant death, transient tachypnea in the newborn, distress syndrome, bronchopulmonary dysplasia, need for ventilatory support, retinopathy of prematurity, and patent ductus arteriosus” value ([1]; versus placebo group)?
Its value is “slightly but not significantly lower”.

What about the “women needed to be treated to prevent one delivery before 32 weeks of gestation” value ([1]; women with similar risk level) of the same compound?
The value was 12 women.

And the “odds ratio of preterm delivery (<37 weeks) 17-HPC vs placebo” value [2]?
The value was 0.21 and 0.2097.

And the “proportion of deliveries at less than 37 weeks of gestation, subjects who did not smoke during pregnancy” value ([3]; not smoking during pregnancy, 92/240, placebo 51.2% (63/123))?
The value was 38.3%.

And the “proportion of deliveries at less than 37 weeks of gestation, subjects who smoked during pregnancy” value ([3]; smoking during pregnancy, 23/70, placebo 70% (21/30))?
Its value is 32.9%.

And the “health status or physical examination of the children” value ([4]; mean age at follow up 48 months, 194 children in 17-HPC group vs 84 placebo)?
Its value is “No significant differences”.

What about the “Ages and Stages Questionnaire (development in five areas)” value ([4]; mean age at follow up 48 months, versus placebo) of the same compound?
The value was “no difference”.

And the “safety for the fetus” value ([4]; weekly intramuscular injection to the mother during second and third trimesters)?
The value was “appears to be safe for the fetus”.
